{"source": "patent US8507448B2", "about": "“Human CD154-binding synthetic peptide and uses thereof” (Fresenius Medical Care Deutschland G.m.b.H., priority 2007, dated 2013)", "key": {"human platelets": {"test_system": "human platelets", "assay": "Platelet aggregation assay (aggregometer)", "assay_type": "cell-based", "procedure": "Platelet aggregation was measured with an aggregometer, as the increase in light transmission compared to the control. Priming of human platelets with the anti-human CD154 antibody in combination with rhsCD154 increases platelet aggregation upon stimulation with ADP 0.5 μM.\nFinally, one of the major advantages of peptide 4.10 is its lack of reactivity towards human platelets. It is know that in the past, a number of clinical trials carried out to test promising anti-CD154 monoclonal antibodies were suddenly discontinued due to dramatic prothrombotic side effects (Kelsoe G. et al, J. Clin. Invest. 2003). The hypothesis is that the anti-CD154 antibodies had triggered a cross-reaction on the surface of human platelets expressing the receptor for the Fc immunoglobulin fraction (FcR) and, after activation, the CD154 molecule. Thus, the inventors tested the effect of peptide 4.10 on platelets, by a platelet aggregation assay. Such experiments were carried out by the use of a thermostatic aggregometer, equipped with a magnetic stirrer and a real time optical density meter. Platelet aggregation was evaluated as the change in optical density versus the reference sample (blank). The experiments were carried out on platelets extracted from peripheral whole blood of healthy donors collected in tubes containing 5 U/ml heparin. In particular, the platelet enriched plasma (PRP), was obtained by whole blood centrifugation at 900 rpm for 20 minutes, while the platelet poor plasma (PPP), used as the reference sample, was obtained collecting the supernatant after another centrifugation at 3000 rpm for 10 minutes. […] Similar results were obtained inducing platelet aggregation with 0.3 U/ml thrombin."}, "[1]": {"target": "T1, human CD154 expressed on the surface of J558L cells (Homo sapiens, UniProt P29965)", "T1 construct": "expressed in transfected cells; host or cells: J558L murine myeloma cell line transfected with human CD154", "T1 sequence (P29965 1-261)": "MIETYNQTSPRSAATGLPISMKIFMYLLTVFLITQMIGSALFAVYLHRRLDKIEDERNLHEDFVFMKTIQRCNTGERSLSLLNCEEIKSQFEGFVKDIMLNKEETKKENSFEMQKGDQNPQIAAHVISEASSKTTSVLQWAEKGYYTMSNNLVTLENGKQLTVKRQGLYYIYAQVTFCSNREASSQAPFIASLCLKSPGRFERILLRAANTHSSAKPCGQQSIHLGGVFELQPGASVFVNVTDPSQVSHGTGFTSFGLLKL", "assay": "Binding of -His6-tagged peptides to J558L CD154+ cells by flow cytometry", "conditions": "-His6 peptides 60 μM, 30 minutes at room temperature", "procedure": "FIG. 2 represents the binding of the seven peptides obtained from the human CD154-binding clones and tagged with a 6 histidines tail (-His6) to the J558L CD154^+ cells. […] The cells were incubated with each of the -His6-tagged peptides and then with a phycoerythrin-conjugated secondary antibody specific for the -His6 tail. The dotted histogram is the isotopic control, whilst the black line is the binding intensity of the CD154-specific peptides [4.2=4.3=CPSGHTKAC (SEQ ID NO: 1), 4.4=CGTHSSRIC (SEQ ID NO: 2), 4.6=CLGTQNKEC (SEQ ID NO: 3), 4.7=4.12=CTPGKPHSC (SEQ ID NO: 4), 4.8=CKAASANIC (SEQ ID NO: 5), 4.10=CLPTRHMAC (SEQ ID NO: 6) and 4.11=CLSAVHNMC (SEQ ID NO: 7)]. For each experimental condition, 10,000 events were analyzed and the values are the mean and standard deviation of 3 different experiments.\n(§1) The peptides were synthesized and conjugated with biotin (-bio) or with a 6-histidine tail (-his6) so as to enable in vitro and in vivo localization. […] Furthermore, a competition assay between the peptides and an anti-human CD154 fluorescein-conjugated antibody (Serotec) specifically recognizing the active site of CD154 was carried out. The J558L cells were incubated with the his6-peptides for 30 minutes at room temperature and then with anti-human CD154 fluorescein-conjugated antibody for another 30 minutes at room temperature. […] In order to identify the amino acid residues of the amino acid sequence of peptide 4.10 which are essential to the binding to CD154, three different peptides were synthesized, each one carrying a point mutation, which amino acid sequences differ from that of peptide 4.10 by replacement of the amino acid residues at positions 4, 5, 6, respectively, with one alanine residue.\nThe mutated peptides were not capable of recognizing human CD154 expressed at the surface of J558L cells (data not shown).\nSimilar results were obtained with the four modified peptides 4.101, 4.102, 4.103 e 4.104 having the amino acid sequences illustrated in table II."}, "[2]": {"test_system": "control J558 cells (CD154-negative)", "assay": "Binding to control CD154-negative J558 cells by flow cytometry", "set-up": "species or system murine", "conditions": "-His6 peptides"}, "[3]": {"test_system": "CD40 stimulation of peripheral B cells by rhsCD154", "assay": "rhsCD154-induced B cell activation (CD80 and CD86 membrane expression)", "assay_type": "cell-based, human", "procedure": "The histograms of 4A show the effect of the anti-CD154 peptides and the control peptide 4.10-ala, on the activation B cells induced by stimulation with a soluble recombinant human CD154 molecule (rhsCD154). B cells were stimulated for 48 hours with rhsCD154 in the absence and in the presence of a blocking anti-human CD154 antibody or one of the seven selected peptides. Peripheral B cell activation was evaluated by flow cytometry, as the membrane expression of the co-stimulatory molecules CD80 and CD86. […] On the contrary, the activation is prevented when rhsCD154 is used in combination with a blocking anti-human CD154 antibody or with peptide 4.10 (SEQ ID NO: 6).\nB cells are known to constitutively express the CD40 molecule on the cells membrane (van Kooten C. et al, J. Leukoc. Biol. 2000). Stimulation of CD40 by CD154-expressing activated T cells, results in B cells activation, proliferation and isotype switching. The inventors employed B cells isolated from whole peripheral blood of healthy donors by gradient-Ficoll centrifugation and immunomagnetical separation (MACS systems—Milteniy). The quiescent B cells thereby obtained, were then stimulated with a soluble form of human recombinant CD154 (rhsCD154) to induce activation and expression of the co-stimulatory molecules CD80 (B7-1) and CD86 (B7-2) on the cell membrane. A drastic increase in membrane expression of CD80 and CD86 on the cell surface of peripheral B cells, after stimulation for 48 hours with rhsCD154 (100 ng/ml) was observed. […] In contrast, pre-incubation for 15 minutes at 37° C. of rhsCD154 (100 ng/ml) with peptide 4.10 (SEQ. ID NO: 6), prior to lymphocyte stimulation, blocked B cells stimulation and the related expression of CD80 and CD86. […] The results are the mean±standard deviation of five different experiments. Similar results were also obtained with B cells isolated from human spleen fragments. […] These experiments were carried out on […] naive B cells, obtained from peripheral blood by negative selection, by depletion of mature lymphocytes from the B cell pool by immunomagnetic separation (MACS Systems Milteniy)."}, "HUVEC": {"test_system": "HUVEC", "assay": "In vitro angiogenesis: cell cord formation of HUVECs on Matrigel", "assay_type": "cell-based, human", "conditions": "pre-incubated with rhsCD154 100 ng/ml for 15 minutes at 37° C.; 4 hours", "text": "FIGS. 7B-F show representative images of cell cord formation ability on Matrigel under the various experimental conditions mentioned above (B=unstimulated control; C=rhsCD154; D=rhsCD154+ 4.10 peptide; E=rhsCD154+ 4.10-ala peptide; F=rhsCD154+ blocking anti-CD154 antibody). Peptide 4.10 of the invention (SEQ ID NO: 6), contrary to control peptide 4.10-ala (SEQ ID NO: 8), inhibits the rhsCD154-induced ability of the endothelial cells of forming cell cords.\nFurthermore, in order to evaluate the inhibitory effect, rhsCD154 (100 ng/ml) was pre-incubated for 15 minutes at 37° C. with peptide 4.10 (SEQ. ID NO: 6), or with control peptide 4.10-ala (SEQ. ID NO: 8), or with a blocking anti-human CD154 antibody. The flasks were then observed at 10× magnification for a period of 4 hours under a phase contrast inverted microscope equipped with a thermostatic chamber (at about 37° C.). The cells were photographed with a camera connected to the microscope, over the whole length of time of 4 hours at regular intervals of 15 minutes each. The migratory speed of each of the cells was calculated based on the position of the nucleus of each single cell in each single frame, using an image analysis software and, as a result, the average cell migratory speed (1 standard deviation) was calculated for each experimental condition. […] As a further confirmation of the ability of peptide 4.10 to prevent human endothelial CD40 stimulation by rhsCD154 (100 ng/ml), HUVECs (3.5×10^4) were subjected to an in vitro angiogenesis assay. HUVECs were plated on a tumor matrix (Matrigel, BD) capable of promoting the formation of super cellular organization, in a basal RPMI medium supplemented with 5% serum. Upon incubation at 37° C. under 5% CO2 for 4 hours, the cells were observed under a contrast phase inverted microscope."}, "[4]": {"target": "T2, active site of human CD154 (Homo sapiens, UniProt P29965)", "T2 construct": "expressed in transfected cells; host or cells: J558L murine myeloma cell line transfected with human CD154", "T2 sequence (P29965 1-261)": "T1 sequence (P29965 1-261)", "assay": "Competition with anti-human CD154 fluorescein-conjugated antibody on J558L cells", "assay_type": "binding", "conditions": "-His6 peptides 30 minutes at room temperature, then antibody", "procedure": "The murine myeloma cells transfected with human CD154, J558L, were incubated with each of the seven anti-CD154 peptides tagged with a 6 histidines tail (-His6), and then with the anti-CD154 fluorescein-conjugated antibody. The ability of the peptides to compete with the anti-CD154 antibody for the binding to the CD154 molecule expressed on the surface of the J558L cells was evaluated by flow cytometry, as the reduction in the fluorescence intensity compared to the positive control represented by cells incubated with the anti-human CD154 fluorescein-conjugated antibody alone. […] The amino acid sequence of the control peptide differs from that of peptide 4.10 in that an arginine residue is replaced with an alanine residue at amino acid position 5.\nas §1"}, "[5]": {"conditions": "peptide 250 μM with rhsCD154 100 ng/ml"}}, "note": "Positions of bridges follow the written chain, without caps; N, C: chain ends. Residues, ends and D or L forms follow the SMILES beside them. No end group written: not given here."}
{"compound": "CSCC[C@@H]1NC(=O)[C@H](Cc2c[nH]cn2)NC(=O)[C@H](CCCNC(=N)N)NC(=O)[C@H]([C@@H](C)O)NC(=O)[C@@H]2CCCN2C(=O)[C@H](CC(C)C)NC(=O)[C@@H](N)CSSC[C@@H](C(=O)O)NC(=O)[C@H](C)NC1=O", "note": "[peptide 4.10, CLPTRHMAC] (H-CLPTRHMAC-OH; disulfide 1-9)", "values": [{"measurement": "platelet aggregation induced by ADP 0.5 μM after priming", "setting": "human platelets; priming 10 minutes at 37° C., peptide 60 μM with CD154", "result": "did not enhance platelet aggregation"}, {"measurement": "activation of human platelet aggregation with thrombin at a subliminal dose", "setting": "human platelets; thrombin 0.3 U/ml", "result": "inactive"}]}
{"compound": "CGTHSSRIC (disulfide 1-9 (inferred)) [4.4]", "values": [{"measurement": "binding to J558L CD154+ cells", "setting": "[1]", "result": "capable of specifically binding"}, {"measurement": "binding to control J558 cells", "setting": "[2]", "result": "not capable of binding"}]}
{"compound": "CIPTRHMAC (binding protein) [4.101, modified form of peptide 4.10]", "values": [{"measurement": "binding to J558L CD154+ cells", "setting": "[1]", "result": "None of these peptides proved to be capable of binding"}]}
{"compound": "CIPTRHMVC (binding protein) [4.103, modified form of peptide 4.10]", "values": [{"measurement": "binding to J558L CD154+ cells", "setting": "[1]", "result": "None of these peptides proved to be capable of binding"}]}
{"compound": "CKAASANIC (disulfide 1-9 (inferred)) [4.8]", "values": [{"measurement": "binding to J558L CD154+ cells", "setting": "[1]", "result": "capable of specifically binding"}, {"measurement": "binding to control J558 cells", "setting": "[2]", "result": "not capable of binding"}]}
{"compound": "CLGTQNKEC (disulfide 1-9 (inferred)) [peptide 4.6]", "values": [{"measurement": "binding to J558L CD154+ cells", "setting": "[1]", "result": "capable of specifically binding"}, {"measurement": "expression of CD80 compared to basal levels", "setting": "[3]; [5]", "result": 117, "unit": "%"}, {"measurement": "expression of CD86 compared to basal levels", "setting": "[3]; [5]", "result": 122, "unit": "%"}, {"measurement": "binding to control J558 cells", "setting": "[2]", "result": "not capable of binding"}, {"measurement": "effect on rhsCD154-induced formation of vessel-like cell cords on Matrigel", "setting": "HUVEC", "result": "not capable of significantly reducing the stimulation of endothelial CD40"}, {"measurement": "competition with anti-human CD154 fluorescein-conjugated antibody specific for the active site of CD154", "setting": "[4]", "result": "do not specifically bind to the active site"}]}
{"compound": "CLPSRHMAC (binding protein) [4.102, modified form of peptide 4.10]", "values": [{"measurement": "binding to J558L CD154+ cells", "setting": "[1]", "result": "None of these peptides proved to be capable of binding"}]}
{"compound": "CLPTRWMAC (binding protein) [4.104, modified form of peptide 4.10]", "values": [{"measurement": "binding to J558L CD154+ cells", "setting": "[1]", "result": "None of these peptides proved to be capable of binding"}]}
{"compound": "CLSAVHNMC (disulfide 1-9 (inferred)) [peptide 4.11]", "values": [{"measurement": "binding to J558L CD154+ cells", "setting": "[1]", "result": "capable of specifically binding"}, {"measurement": "inhibition of rhsCD154-induced B cell activation (CD80 and CD86 expression)", "setting": "[3]; 250 μM", "result": "not stably reproducible"}, {"measurement": "binding to control J558 cells", "setting": "[2]", "result": "not capable of binding"}, {"measurement": "effect on rhsCD154-induced formation of vessel-like cell cords on Matrigel", "setting": "HUVEC", "result": "not capable of significantly reducing the stimulation of endothelial CD40"}, {"measurement": "competition with anti-human CD154 fluorescein-conjugated antibody specific for the active site of CD154", "setting": "[4]", "result": "do not specifically bind to the active site"}]}
{"compound": "CPSGHTKAC (disulfide 1-9 (inferred)) [4.2=4.3]", "values": [{"measurement": "binding to J558L CD154+ cells", "setting": "[1]", "result": "capable of specifically binding"}, {"measurement": "binding to control J558 cells", "setting": "[2]", "result": "not capable of binding"}]}
{"compound": "CTPGKPHSC (disulfide 1-9 (inferred)) [4.7=4.12]", "values": [{"measurement": "binding to J558L CD154+ cells", "setting": "[1]", "result": "capable of specifically binding"}, {"measurement": "binding to control J558 cells", "setting": "[2]", "result": "not capable of binding"}]}
